From ChEMBL document CHEMBL4251606, “Design and characterization of α-lipoic acyl shikonin ester twin drugs as tubulin and PDK1 dual inhibitors” (Eur J Med Chem, 2018) come the findings set out here.

Test [1] has as its system HeLa. Kind of test: Induction of mitochondrial membrane potential loss in human HeLa cells assessed as cells with high membrane potential at 2 uM after 12 hrs by JC-1 staining-based flow cytometric analysis (reference value: 85.8%). It counts as functional. On the technique in general: Flow cytometry measures light scatter and fluorescence of single cells or particles in a stream.

Test [2] relates to HeLa. Kind of test: Induction of apoptosis in human HeLa cells assessed as early apoptotic cells at 6 uM after 36 hrs by Annexin V-APC/propidium iodide staining-based FACScan flow cytometric analysis (reference value: 2.45%). It counts as functional.
Test [3] relates to HeLa. Put plainly: Induction of mitochondrial membrane potential loss in human HeLa cells assessed as cells with low membrane potential at 4 uM after 12 hrs by JC-1 staining-based flow cytometric analysis (reference value: 9.31%). It counts as functional.
The target in test [4] is [Pyruvate dehydrogenase (acetyl-transferring)] kinase isozyme 1, mitochondrial (Homo sapiens) (UniProt Q15118). Put plainly: Inhibition of PDK1 in human HeLa cells assessed as increase in PDH activity at 1 to 1.5 uM by microplate assay. It counts as cell-based.
The test system of test [5] is HeLa. Put plainly: Cell cycle arrest in human HeLa cells assessed as accumulation of cells at G1 phase at 8 uM after 24 hrs by propidium iodide staining-based FACScan flow cytometric analysis (reference value: 62.92%). It counts as functional.

Each structure is given as a SMILES string. Calls of active or inactive are those of the source. The calls are words filed in the database; no cut-off is given here.

In the case of `CC(C)=CC[C@@H](OC(=O)CCCC[C@@H]1CCSC(c2ccccc2)S1)C1=CC(=O)c2c(O)ccc(O)c2C1=O` (stereo not given in full), the Activity is on record as 42.1% in test [1], 45.7% in test [2], 82.2% in test [3] and 15.42% in test [5]. The inhibition result in test [4] was “Active”.
